The values that follow come from PubChem BioAssay AID2423 (Broad Institute, 2010).

Results filed as inconclusive are left out. The source made the active and inactive calls. The rule behind the calls is not given here.

As a reminder, the EC50 is the concentration that produces a half-maximal response.

The assay deals with C. albicans CaCi-8 + fluconazole, Alamar Blue growth, 48 h. As to the kind of experiment: resistant C. albicans growth inhibition with fluconazole, dose response, CaCi-8 strain, Alamar Blue fluorescence (AID 2423).
As to `COc1ccc(C2C(C(=O)c3cccs3)=C(O)C(=O)N2c2nncs2)cc1` (configuration not stated), the EC50 was 15.2 µM. Next, `O=[N+]([O-])c1cc(Cl)c(O)c2ncccc12`: 0.344 µM; `COc1ccc(NC(=O)C(=O)NNC(=O)c2ccc(Cl)cc2Cl)cc1`: 0.888 µM. Next, `Cn1c(N2CCOCC2)c(/C=N/OC(=O)c2ccc(F)cc2)c2ccccc21`: 0.63 µM; `CC[n+]1c(/C=C/N(C)c2ccccc2)sc2ccc(Cl)cc21`: 3.15 µM; `O=C(Oc1c(CN2CCOCC2)cc(Cl)c2cccnc12)c1ccccc1`: 2.65 µM. For `Cc1cc(/C=N/NC(N)=S)c(C)n1-c1cccc(Cl)c1` the value was 1.65 µM; for `COc1cc(SC)ccc1C(=O)OCC(=O)NC1CC1`, > 15 µM (inactive); for `Cc1cccc(N2CCc3c2nc2ccc(Br)cc2c3N)c1`, 1.61 µM. For `NC(=O)CC12CC3CC(C1)CC(CC(N)=O)(C3)C2`, the EC50 is > 16 µM (inactive). `O=C(NNC(=S)NC(=O)c1ccccc1)c1ccc([N+](=O)[O-])cc1`: the EC50 is 4.12 µM.

In the case of `COc1ccc(CCNC(=O)c2c(O)c3ccccc3n(C)c2=O)cc1`, the EC50 was > 15 µM (inactive).
